The results in this text go back to paper PMC12718135, “Non-catalytic UBL2 domain directs deubiquitinase USP11 toward K48-linked polyubiquitin chains” (The Journal of Biological Chemistry, 2025).

One experiment concerns the target T1, USP11ΔDUSP (Homo sapiens, UniProt P51784).
T1 construct: gene USP11; N-terminal DUSP domain removed; keeps UBL1, D1, UBL2-IDR, D2
The experiment is described as follows: SDS-gel deubiquitination of K48- and K63-polyubiquitinated Rsp5. It is filed as biochemical. Conditions: K48- and K63-linked poly-ubiquitinated Rsp5 substrates.

The target in another experiment is T2, USP11-D1D2 (Homo sapiens, UniProt P51784).
T2 construct: catalytic core only: D1 and D2 segments joined by five residues (ASTSK), UBL2-IDR insert, DUSP and UBL1 removed; E. coli BL21 RIL, N-terminal His6 tag cut with TEV
T2 sequence (P51784 286-490 limits assumed): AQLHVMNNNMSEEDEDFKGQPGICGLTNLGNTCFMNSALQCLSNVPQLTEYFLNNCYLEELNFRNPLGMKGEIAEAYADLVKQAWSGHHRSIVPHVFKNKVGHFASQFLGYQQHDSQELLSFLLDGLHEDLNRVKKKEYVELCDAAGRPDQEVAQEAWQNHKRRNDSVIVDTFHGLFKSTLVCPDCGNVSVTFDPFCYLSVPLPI
T2 sequence (P51784 735-930 limits assumed): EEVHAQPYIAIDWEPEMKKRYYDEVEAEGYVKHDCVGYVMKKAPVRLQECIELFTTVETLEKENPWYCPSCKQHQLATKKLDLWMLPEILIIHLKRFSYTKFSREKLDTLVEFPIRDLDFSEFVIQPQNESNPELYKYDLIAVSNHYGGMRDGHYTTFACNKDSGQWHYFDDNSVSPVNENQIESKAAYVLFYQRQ
The experiment is described as follows: SDS-gel deubiquitination of K63-polyubiquitinated Rsp5 (fluorescein-Ub). Conditions: 1 μM enzyme, 25 mM Tris pH 7.5, 200 mM NaCl, 3 mM βME. It is filed as biochemical.

SMILES strings stand for the structures.

T1 sequence (P51784 185-963 limits assumed, stated change not applied): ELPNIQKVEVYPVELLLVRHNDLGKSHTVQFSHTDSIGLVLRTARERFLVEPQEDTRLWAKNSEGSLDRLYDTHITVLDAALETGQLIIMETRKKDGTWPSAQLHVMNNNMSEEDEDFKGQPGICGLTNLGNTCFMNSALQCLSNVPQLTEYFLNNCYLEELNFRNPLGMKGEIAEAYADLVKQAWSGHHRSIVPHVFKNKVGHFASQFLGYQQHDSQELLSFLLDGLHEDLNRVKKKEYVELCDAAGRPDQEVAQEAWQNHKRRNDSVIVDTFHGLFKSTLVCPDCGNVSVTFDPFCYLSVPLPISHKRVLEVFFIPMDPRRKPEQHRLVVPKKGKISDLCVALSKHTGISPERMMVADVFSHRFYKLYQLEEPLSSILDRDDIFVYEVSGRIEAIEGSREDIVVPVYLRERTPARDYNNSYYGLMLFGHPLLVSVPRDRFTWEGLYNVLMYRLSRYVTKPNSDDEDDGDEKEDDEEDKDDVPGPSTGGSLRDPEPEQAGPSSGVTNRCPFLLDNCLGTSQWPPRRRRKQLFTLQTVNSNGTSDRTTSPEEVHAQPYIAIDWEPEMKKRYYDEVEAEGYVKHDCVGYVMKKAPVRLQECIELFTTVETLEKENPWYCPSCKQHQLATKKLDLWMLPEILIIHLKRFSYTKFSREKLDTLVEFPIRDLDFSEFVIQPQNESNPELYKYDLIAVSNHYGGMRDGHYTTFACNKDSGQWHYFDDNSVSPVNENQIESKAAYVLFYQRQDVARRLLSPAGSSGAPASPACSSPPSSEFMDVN

For orientation: IC50 means the concentration that inhibits the measured activity by half. A lower IC50 goes with greater potency. For the compound `Cc1cc2c(s1)Nc1ccccc1N=C2N1CC[N+](C)([O-])CC1` [SRO-01], the “SDS-gel deubiquitination of K48- and K63-polyubiquitinated Rsp5” value (shortened to “SDS-gel deubiquitination”) on USP11ΔDUSP is “SRF-01, SRF-02, SRF-03, and SRO-01 also inhibited the activity of USP11ΔDUSP”. In addition, the IC50 on USP11-D1D2 was around 30 µM.

In the case of `Oc1cc2c(cc1O)C(c1ccccc1)CNCC2` (centres unmarked) [SRF-02], the “SDS-gel deubiquitination” value at USP11ΔDUSP was “SRF-01, SRF-02, SRF-03, and SRO-01 also inhibited the activity of USP11ΔDUSP”. In addition, on USP11-D1D2, the IC50 is around 30 µM.

Take `CN1CCc2cc(Cl)c(O)cc2[C@@H](c2ccccc2)C1` [SRF-03]: on USP11ΔDUSP, the “SDS-gel deubiquitination” value was “SRF-01, SRF-02, SRF-03, and SRO-01 also inhibited the activity of USP11ΔDUSP”. This compound also came in with an IC50 against USP11-D1D2 of around 30 µM.

With `Oc1ccc(C2CNCCc3c2cc(O)c(O)c3Cl)cc1` (centres unmarked) [Fenoldopam], the “SDS-gel deubiquitination” value on USP11ΔDUSP was “Fenoldopam and Olanzapine effectively disrupted the ability of USP11ΔDUSP to process both K48 and K63-linked”. The same compound yielded an IC50 against USP11-D1D2 of around 30 µM.

Turning to `Oc1ccc(C2CNCCc3c2cc(O)c(O)c3Cl)cc1` (centres unmarked) [SRF-01], the “SDS-gel deubiquitination” value at USP11ΔDUSP is “SRF-01, SRF-02, SRF-03, and SRO-01 also inhibited the activity of USP11ΔDUSP”. For the same compound, on USP11-D1D2 (value printed collectively for the analogs), the IC50 was around 30 µM.

Regarding `Cc1cc2c(s1)Nc1ccccc1N=C2N1CCN(C)CC1` [Olanzapine], the “SDS-gel deubiquitination” value on USP11ΔDUSP was “Fenoldopam and Olanzapine effectively disrupted the ability of USP11ΔDUSP to process both K48 and K63-linked”.
